Results reported in patent US10077261B2, “Imidazolin-5-one derivative useful as FASN inhibitors for the treatment of cancer” (Janssen Pharmaceutica NV, priority 2012, dated 2018).

Biological target: T1, hFASN enzyme (full length) (Homo sapiens, UniProt P49327)
T1 construct: 10 μL hFASN enzyme (full length, 300 ng, purified in house); made in house
Assay: Fatty Acid Synthase (FASN) inhibition scintillation proximity assay
Assay type: biochemical
Conditions: for inhibition at 10 µM: read-out: Human FASN % inhibition @ 10 μM, 10 μM test compound; for IC50: read-out: Human FASN pIC50 (converted)
How it was run: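 Full-length in-house purified enzyme (300 ng) was tested in 100 mM KH2PO4 pH 7.5, 1 mM DTT with ³H-acetyl-CoA and malonyl-CoA as substrates; compounds ranged 0.01–30 μM. Reactions were stopped with streptavidin imaging beads, read by LEADseeker at 610 nm, and fitted to a 4-parameter logistic curve.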

T1 sequence (P49327 whole entry): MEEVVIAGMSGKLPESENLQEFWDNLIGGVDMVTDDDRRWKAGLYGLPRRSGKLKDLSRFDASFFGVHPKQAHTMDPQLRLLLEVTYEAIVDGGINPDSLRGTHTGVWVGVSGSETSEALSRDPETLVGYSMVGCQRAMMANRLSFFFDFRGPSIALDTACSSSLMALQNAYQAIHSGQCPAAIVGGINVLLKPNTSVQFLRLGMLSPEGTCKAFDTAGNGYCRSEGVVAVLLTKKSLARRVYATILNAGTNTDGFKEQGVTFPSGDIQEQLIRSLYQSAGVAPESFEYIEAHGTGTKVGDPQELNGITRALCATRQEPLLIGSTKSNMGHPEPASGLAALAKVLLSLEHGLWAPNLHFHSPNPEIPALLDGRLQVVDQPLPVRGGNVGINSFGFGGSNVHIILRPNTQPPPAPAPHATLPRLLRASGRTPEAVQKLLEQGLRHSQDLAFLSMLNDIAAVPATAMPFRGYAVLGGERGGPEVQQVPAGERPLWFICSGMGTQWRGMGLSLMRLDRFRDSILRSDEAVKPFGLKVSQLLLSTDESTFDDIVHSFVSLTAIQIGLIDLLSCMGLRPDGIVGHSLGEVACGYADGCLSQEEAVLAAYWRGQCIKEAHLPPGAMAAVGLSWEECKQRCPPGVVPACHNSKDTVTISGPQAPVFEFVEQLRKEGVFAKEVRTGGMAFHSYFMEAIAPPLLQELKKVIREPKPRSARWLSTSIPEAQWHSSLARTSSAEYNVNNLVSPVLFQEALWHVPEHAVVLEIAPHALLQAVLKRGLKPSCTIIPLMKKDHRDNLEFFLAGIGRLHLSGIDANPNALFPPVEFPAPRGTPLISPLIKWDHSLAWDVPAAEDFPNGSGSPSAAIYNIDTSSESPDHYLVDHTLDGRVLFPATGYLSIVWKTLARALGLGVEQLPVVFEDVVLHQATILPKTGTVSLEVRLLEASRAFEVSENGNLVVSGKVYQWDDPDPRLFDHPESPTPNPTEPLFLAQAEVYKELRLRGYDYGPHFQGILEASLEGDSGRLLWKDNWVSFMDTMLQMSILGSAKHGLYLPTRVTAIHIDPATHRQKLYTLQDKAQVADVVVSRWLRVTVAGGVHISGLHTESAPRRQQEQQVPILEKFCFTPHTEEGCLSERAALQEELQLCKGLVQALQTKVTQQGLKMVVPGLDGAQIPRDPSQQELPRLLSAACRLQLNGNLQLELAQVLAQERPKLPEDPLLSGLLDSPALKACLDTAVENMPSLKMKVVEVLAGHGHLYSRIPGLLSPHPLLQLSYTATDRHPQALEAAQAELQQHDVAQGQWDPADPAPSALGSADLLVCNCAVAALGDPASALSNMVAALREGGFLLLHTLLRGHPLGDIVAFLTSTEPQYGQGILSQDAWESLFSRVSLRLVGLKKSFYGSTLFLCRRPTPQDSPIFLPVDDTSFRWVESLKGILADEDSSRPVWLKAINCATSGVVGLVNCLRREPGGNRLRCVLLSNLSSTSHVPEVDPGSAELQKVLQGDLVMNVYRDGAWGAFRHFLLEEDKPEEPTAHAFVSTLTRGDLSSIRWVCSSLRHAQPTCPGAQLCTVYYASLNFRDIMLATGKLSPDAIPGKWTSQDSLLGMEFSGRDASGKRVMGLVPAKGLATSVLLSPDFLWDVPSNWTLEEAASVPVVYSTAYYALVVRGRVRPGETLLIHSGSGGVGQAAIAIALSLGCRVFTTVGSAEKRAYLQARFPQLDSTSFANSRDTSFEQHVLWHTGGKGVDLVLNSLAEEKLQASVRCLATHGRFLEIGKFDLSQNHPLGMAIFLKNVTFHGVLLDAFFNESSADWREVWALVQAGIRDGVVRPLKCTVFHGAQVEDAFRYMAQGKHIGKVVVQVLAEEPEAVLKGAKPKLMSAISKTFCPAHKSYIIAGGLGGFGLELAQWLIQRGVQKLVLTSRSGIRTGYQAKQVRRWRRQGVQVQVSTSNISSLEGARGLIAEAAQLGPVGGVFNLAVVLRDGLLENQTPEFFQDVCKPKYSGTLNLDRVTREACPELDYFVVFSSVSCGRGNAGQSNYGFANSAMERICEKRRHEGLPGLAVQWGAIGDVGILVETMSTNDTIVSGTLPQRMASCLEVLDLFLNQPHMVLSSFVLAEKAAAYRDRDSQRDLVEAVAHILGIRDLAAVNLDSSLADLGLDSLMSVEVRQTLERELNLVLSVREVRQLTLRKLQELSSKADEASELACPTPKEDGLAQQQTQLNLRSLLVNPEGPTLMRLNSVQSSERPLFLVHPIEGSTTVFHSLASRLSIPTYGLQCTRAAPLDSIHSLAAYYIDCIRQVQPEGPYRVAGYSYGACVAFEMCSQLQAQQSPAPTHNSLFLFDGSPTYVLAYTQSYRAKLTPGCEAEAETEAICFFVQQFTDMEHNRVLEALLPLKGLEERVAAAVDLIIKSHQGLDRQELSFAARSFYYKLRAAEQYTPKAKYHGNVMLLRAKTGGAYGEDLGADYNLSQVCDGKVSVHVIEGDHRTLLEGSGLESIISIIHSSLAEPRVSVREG

Row | SMILES | inhibition at 10 µM [%] | IC50 [µM]
1 | Cc1cc2cc(-c3ccc(C4=NC5(CCNCC5)C(=O)N4C[C@@H]4CCN(C(=O)C5CC5)C4)cc3)ccc2o1 [compound 155] | 96.5 | 0.776
2 | CS(=O)(=O)N1CCC2(CC1)N=C(c1ccc(-c3ccc4occc4c3)cc1)N(CC1CN(C(=O)C3CC3)C1)C2=O [compound 760, 2-[4-(1-Benzofuran-5-yl)phenyl]-3-{[1-(cyclopropylcarbonyl)azetidin-3-yl]methyl}-8-(methylsulfonyl)-1,3,8-triazaspiro[4.5]dec-1-en-4-one] | 62 | 4.79
3 | O=C(C1CC1)N1CC[C@@H](CN2C(=O)C3(CC3)N=C2c2ccc(-c3ccc4c(c3)OCCO4)cc2)C1 [compound 456, 6-{[(3R)-1-(Cycloprop-ylcarbonyl)pyrrolidin-3-yl]methyl}-5-[4-(2,3-dihydro-1,4-benzodioxin-6-yl)phenyl]-4,6-diazaspiro[2.4]hept-4-en-7-one] | 65 | 6.92
4 | CS(=O)(=O)N1CC[C@@H](CN2C(=O)C3(CCOCC3)N=C2c2ccc(-c3ccc4occc4c3)cc2)C1 [compound 913, (S)-2-(4-(benzofuran-5-yl)phenyl)-3-((1-(methylsulfonyl)pyrrolidin-3-yl)methyl)-8-oxa-1,3-diazaspiro[4.5]dec-1-en-4-one] | 0.4 | > 10
5 | Cc1cc(C2=NC3(CC3)C(=O)N2C[C@@H]2CCN(C(=O)C3CC3)C2)ccc1-c1ccc2occc2c1 [compound 180, 5-[4-(1-Benzofuran-5-yl)-3-methylphenyl]-6-{[(3R)-1-(cyclopropylcarbonyl)pyrrolidin-3-yl]methyl}-4,6-diazaspiro[2.4]hept-4-en-7-one] | 101 | 0.138
6 | O=C(C1CC1)N1CC(CN2C(=O)C3(CC3)N=C2c2ccc(-c3ccc4c(cnn4CC4CC4)c3)cc2)C1 [compound 804, 6-((1-(cyclopropanecarbonyl)azetidin-3-yl)methyl)-5-(4-(1-(cyclopropylmethyl)-1H-indazol-5-yl)phenyl)-4,6-diazaspiro[2.4]hept-4-en-7-one] | 41 | > 10
7 | Cn1ncc2cc(-c3ccc(C4=NC5(CCOCC5)C(=O)N4CC4CN(C(=O)[C@H]5CCCO5)C4)cc3)ccc21 [compound 708, 2-[4-(1-Methyl-1H-indazol-5-yl)phenyl]-3-({1-[(2R)-tetrahydro-furan-2-ylcarbonyl]azetidin-3-yl}methyl)-8-oxa-1,3-diazaspiro[4.5]dec-1-en-4-one] | 76 | 1.86
8 | CCn1cc2cc(-c3ccc(C4=NC5(CC5)C(=O)N4CC4CN(C(=O)C5CC5)C4)cc3)ccc2n1 [compound 506, 6-{[1-(Cyclopropylcarbonyl)azetidin-3-yl]methyl}-5-[4-(2-ethyl-2H-indazol-5-yl)phenyl]-4,6-diazaspiro[2.4]hept-4-en-7-one] | 61 | 3.39
9 | Nc1cncc(-c2ccc(C3=NC4(CC4)C(=O)N3C[C@@H]3CCN(C(=O)C4CC4)C3)cc2)c1 [compound 867, (R)-5-(4-(5-aminopyridi9n-3-yl)phenyl)-6-((1-(cyclopropanecarbonyl)pyrrolidin-3-yl)methyl)-4,6-diazaspiro[2.4]hept-4-en-7-one] | 44 | > 10
10 | O=C(C1CC1)N1CC[C@@H](CN2C(=O)C3(CC3)N=C2c2ccc(-c3cc4cc(Br)ccc4cn3)cc2)C1 [compound 478, 5-[4-(6-Bromoisoquinolin-3-yl)phenyl]-6-{[(3R)-1-(cyclopropylcarbonyl)pyrrolidin-3-yl]methyl}-4,6-diazaspiro[2.4]hept-4-en-7-one] | 92 | 1.38
11 | O=C(N1CC[C@@H](CN2C(=O)C3(CCOCC3)N=C2c2ccc(-c3ccc4occc4c3)cc2)C1)C(F)(F)F [compound 670, 2-[4-(1-Benzofuran-5-yl)phenyl]-3-{[(3R)-1-(trifluoroacetyl)pyrrolidin-3-yl]methyl}-8-oxa-1,3-diazaspiro[4.5]dec-1-en-4-one] | 56 | ~7.59
